Data as given in patent publication US9579319B2 (Redx Pharma PLC, priority 2013, dated 2017).

The molecules below were run on Hedgehog signalling pathway (assay: Gli-reporter NIH3T3 luciferase assay (Hedgehog pathway inhibition)). Details: NIH3T3; Gli-reporter NIH-3T3 cells, recombinant mouse sonic hedgehog, 24 hours, luminescence; read-out: Gli luc IC50.
Type: cell-based
In short: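 Mouse NIH3T3 cells with Gli-responsive luciferase reporter, pre-treated 1 h with compound (top final concentration 1 μM, 0.1% DMSO) in 0.5% calf serum medium. Then stimulated with recombinant mouse sonic hedgehog for 24 h at 37° C. Luminescence read-out (OneGLO), triplicates; IC50 reported.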

Structure (SMILES) | IC50 [nM]
Cc1c(-c2ccnn2C)nnc(N2CCC(N(C)Cc3ccccc3C(F)(F)F)CC2)c1C [Example 84, 1-[4,5-dimethyl-6-(2-methylpyrazol-3-yl)pyridazin-3-yl]-N-methyl-N-[[2-(trifluoromethyl)phenyl]methyl]piperidin-4-amine] | 10 to 200
Cc1c(-c2ccnn2C)nnc(N2CCC(N(C)Cc3ncccc3C(F)(F)F)CC2)c1C [Example 85, 1-[4,5-dimethyl-6-(2-methylpyrazol-3-yl)pyridazin-3-yl]-N-methyl-N-[[3-(trifluoromethyl)-2-pyridyl]methyl]piperidin-4-amine] | 10 to 200
CN(Cc1ccncn1)C1CCN(c2nnc(-c3ccnn3C)c3ccccc23)CC1 [Example 86, N-methyl-1-[4-(2-methylpyrazol-3-yl)phthalazin-1-yl]-N-(pyrimidin-4-ylmethyl)piperidin-4-amine] | > 200
Cc1c(-c2ccnn2C)nnc(N2CCC(N(C)Cc3ccccc3C#N)CC2)c1C [Example 87, 2-[[[1-[4,5-dimethyl-6-(2-methylpyrazol-3-yl)pyridazin-3-yl]-4-piperidyl]-methyl-amino]methyl]benzonitrile] | 10 to 200
CSc1ccccc1CN(C)C1CCN(c2nnc(-c3ccnn3C)c(C)c2C)CC1 [Example 88, 1-[4,5-dimethyl-6-(2-methylpyrazol-3-yl)pyridazin-3-yl]-N-methyl-N-[(2-methylsulfanylphenyl)methyl]piperidin-4-amine] | > 200
Cc1c(-c2ccnn2C)nnc(N2CCC(N(C)Cc3ccnnc3)CC2)c1C [Example 90, 1-[4,5-dimethyl-6-(2-methylpyrazol-3-yl)pyridazin-3-yl]-N-methyl-N-(pyridazin-4-ylmethyl)piperidin-4-amine] | > 200
CN(Cc1ccnnc1)C1CCN(c2nnc(-c3ccnn3C)c3ccccc23)CC1 [Example 91, N-methyl-1-[4-(2-methylpyrazol-3-yl)phthalazin-1-yl]-N-(pyridazin-4-ylmethyl)piperidin-4-amine] | > 200
CSc1nccc(CN(C)C2CCN(c3nnc(-c4ccnn4C)c4ccccc34)CC2)n1 [Example 92, N-methyl-1-[4-(2-methylpyrazol-3-yl)phthalazin-1-yl]-N-[(2-methylsulfanylpyrimidin-4-yl)methyl]piperidin-4-amine] | 10 to 200
CSc1nccc(CN(C)C2CCN(c3nnc(-c4ccnn4C)c(C)c3C)CC2)n1 [Example 93, 1-[4,5-dimethyl-6-(2-methylpyrazol-3-yl)pyridazin-3-yl]-N-methyl-N-[(2-methylsulfanylpyrimidin-4-yl)methyl]piperidin-4-amine] | > 200
Cn1nccc1-c1nnc(N2CCC(N(Cc3ccc(F)cc3C(F)(F)F)C3CC3)CC2)c2ccccc12 [Example 94, N-cyclopropyl-N-[[4-fluoro-2-(trifluoromethyl)phenyl]methyl]-1-[4-(2-methylpyrazol-3-yl)phthalazin-1-yl]piperidin-4-amine] | > 200
Cc1nc(C(F)(F)F)c(CN(C)C2CCN(c3nnc(-c4ccnn4C)c(C)c3C)CC2)s1 [Example 95, 1-[4,5-dimethyl-6-(2-methylpyrazol-3-yl)pyridazin-3-yl]-N-methyl-N-[[2-methyl-4-(trifluoromethyl)thiazol-5-yl]methyl]piperidin-4-amine] | 10 to 200
Cc1nc(C(F)(F)F)c(CN(C)C2CCN(c3nnc(-c4ccnn4C)c4ccccc34)CC2)s1 [Example 96, N-methyl-1-[4-(2-methylpyrazol-3-yl)phthalazin-1-yl]-N-[[2-methyl-4-(trifluoromethyl)thiazol-5-yl]methyl]piperidin-4-amine] | < 10
O=C(Nc1ccc(F)cc1C(F)(F)F)NC1CCN(c2nnc(-c3ccncc3)c3ccncc23)CC1 [Example 99, 1-[4-fluoro-2-(trifluoromethyl)phenyl]-3-[1-[1-(4-pyridyl)pyrido[3,4-d]pyridazin-4-yl]-4-piperidyl]urea] | < 10
Cc1c(-c2ccnn2C)nnc(N2CCC(NC(=O)Nc3ccc(F)cc3C(F)(F)F)CC2)c1C [Example 100, 1-[1-[4,5-dimethyl-6-(2-methylpyrazol-3-yl)pyridazin-3-yl]-4-piperidyl]-3-[4-fluoro-2-(trifluoromethyl)phenyl]urea] | 10 to 200
CN(C(=O)Nc1ccc(F)cc1F)C1CCN(c2nnc(-c3ccnn3C)c3ncccc23)CC1 [Example 101, 3-(2,4-difluorophenyl)-1-methyl-1-[1-[8-(2-methylpyrazol-3-yl)pyrido[2,3-d]pyridazin-5-yl]-4-piperidyl]urea] | > 200
CN(C1CCN(c2nnc(-c3ccnn3C)c3ccncc23)CC1)S(=O)(=O)c1ccc(F)cc1F [Example 102, 2,4-difluoro-N-methyl-N-[1-[1-(2-methylpyrazol-3-yl)pyrido[3,4-d]pyridazin-4-yl]-4-piperidyl]benzenesulfonamide] | 10 to 200
CN(C1CCN(c2nnc(-c3ccnn3C)c3ccncc23)CC1)S(=O)(=O)c1ccc(F)cc1C(F)(F)F [Example 103, 4-fluoro-N-methyl-N-[1-[1-(2-methylpyrazol-3-yl)pyrido[3,4-d]pyridazin-4-yl]-4-piperidyl]-2-(trifluoromethyl)benzenesulfonamide] | 10 to 200
Cn1nccc1-c1nnc(N2CCC(NC(=O)Nc3ccc(F)cc3F)CC2)c2cnccc12 [Example 104, 1-(2,4-difluorophenyl)-3-[1-[1-(2-methylpyrazol-3-yl)pyrido[3,4-d]pyridazin-4-yl]-4-piperidyl]urea] | 10 to 200
Cn1nccc1-c1nnc(N2CCC(NC(=O)Nc3ccc(F)cc3C(F)(F)F)CC2)c2cnccc12 [Example 105, 1-[4-fluoro-2-(trifluoromethyl)phenyl]-3-[1-[1-(2-methylpyrazol-3-yl)pyrido[3,4-d]pyridazin-4-yl]-4-piperidyl]urea] | < 10
Cn1nccc1-c1nnc(N2CCC(NS(=O)(=O)c3ccc(F)cc3C(F)(F)F)CC2)c2cnccc12 [Example 106, 4-fluoro-N-[1-[1-(2-methylpyrazol-3-yl)pyrido[3,4-d]pyridazin-4-yl]-4-piperidyl]-2-(trifluoromethyl)benzenesulfonamide] | 10 to 200
Cc1c(-c2ccnn2C)nnc(N2CCC(N(C)C(=O)Nc3cnncc3C(F)(F)F)CC2)c1C [Example 107, 1-[1-[4,5-dimethyl-6-(2-methylpyrazol-3-yl)pyridazin-3-yl]-4-piperidyl]-1-methyl-3-[5-(trifluoromethyl)pyridazin-4-yl]urea] | > 200
Cc1c(-c2ccnn2C)nnc(N2CCC(NC(=O)NC3(C(F)(F)F)CC3)CC2)c1C [Example 108, 1-[1-[4,5-dimethyl-6-(2-methylpyrazol-3-yl)pyridazin-3-yl]-4-piperidyl]-3-[1-(trifluoromethyl)cyclopropyl]urea] | 10 to 200

Further lines, results first:

IC50 [nM] | Structure (SMILES)
10 to 200 | Cn1nccc1-c1nnc(N2CCC(NC(=O)NC3(C(F)(F)F)CC3)CC2)c2ccccc12 [Example 109, 1-[1-[4-(2-methylpyrazol-3-yl)phthalazin-1-yl]-4-piperidyl]-3-[1-(trifluoromethyl)cyclopropyl]urea]
10 to 200 | COc1ccc(-c2nnc(N3CCC(N(C)Cc4ccc(F)cc4C(F)(F)F)CC3)c(C)c2C)cn1 [Example 110, N-[[4-fluoro-2-(trifluoromethyl)phenyl]methyl]-1-[6-(6-methoxy-3-pyridyl)-4,5-dimethyl-pyridazin-3-yl]-N-methyl-piperidin-4-amine]
10 to 200 | CN(C(=O)Nc1ccc(F)cc1F)C1CCN(c2nnc(-c3ccnn3C)c3ccncc23)CC1 [Example 111, 3-(2,4-difluorophenyl)-1-methyl-1-[1-[1-(2-methylpyrazol-3-yl)pyrido[3,4-d]pyridazin-4-yl]-4-piperidyl]urea]
> 200 | Cc1c(-c2ccnn2C)nnc(N2CCC(N(C)C(=O)Nc3ccc(F)cc3)CC2)c1C [Example 113, 1-[1-[4,5-dimethyl-6-(2-methylpyrazol-3-yl)pyridazin-3-yl]-4-piperidyl]-3-(4-fluorophenyl)-1-methyl-urea]
10 to 200 | CN(Cc1ccccc1[N+](=O)[O-])C1CCN(c2nnc(-c3ccnn3C)c3ccccc23)CC1 [Example 114, N-methyl-1-[4-(2-methylpyrazol-3-yl)phthalazin-1-yl]-N-[(2-nitrophenyl)methyl]piperidin-4-amine]
10 to 200 | Cn1nccc1-c1nnc(N2CCC(NCc3ccccc3S(C)(=O)=O)CC2)c2ccccc12 [Example 115, 1-[4-(2-methylpyrazol-3-yl)phthalazin-1-yl]-N-[(2-methylsulfonylphenyl)methyl]piperidin-4-amine]
10 to 200 | COc1ccc(-c2nnc(N3CCC(NS(=O)(=O)c4ccc(F)cc4C(F)(F)F)CC3)c(C)c2C)cn1 [Example 117, 4-fluoro-N-[1-[6-(6-methoxy-3-pyridyl)-4,5-dimethyl-pyridazin-3-yl]-4-piperidyl]-2-(trifluoromethyl)benzenesulfonamide]
> 200 | Cc1cc(-c2nnc(N3CCC(NS(=O)(=O)c4ccc(F)cc4C(F)(F)F)CC3)c(C)c2C)ccn1 [Example 118, N-[1-[4,5-dimethyl-6-(2-methyl-4-pyridyl)pyridazin-3-yl]-4-piperidyl]-4-fluoro-2-(trifluoromethyl)benzenesulfonamide]
10 to 200 | Cc1c(-c2ccncc2)nnc(N2CCC(NS(=O)(=O)c3ccc(F)cc3C(F)(F)F)CC2)c1C [Example 119, N-[1-[4,5-dimethyl-6-(4-pyridyl)pyridazin-3-yl]-4-piperidyl]-4-fluoro-2-(trifluoromethyl)benzenesulfonamide]
10 to 200 | COc1ccc(-c2nnc(N3CCC(NCc4ccc(F)cc4C(F)(F)F)CC3)c(C)c2C)cn1 [Example 120, N-[[4-fluoro-2-(trifluoromethyl)phenyl]methyl]-1-[6-(6-methoxy-3-pyridyl)-4,5-dimethyl-pyridazin-3-yl]piperidin-4-amine]
> 200 | COc1cc(-c2nnc(N3CCC(NCc4ccc(F)cc4C(F)(F)F)CC3)c(C)c2C)ccn1 [Example 121, N-[[4-fluoro-2-(trifluoromethyl)phenyl]methyl]-1-[6-(2-methoxy-4-pyridyl)-4,5-dimethyl-pyridazin-3-yl]piperidin-4-amine]
